The results in this text go back to ChEMBL document CHEMBL1157995, “New acetylenic enol ethers of glycerol from the sponge Petrosia sp” (1999).

Structures are written as SMILES. Converted amounts (≈) assume the structure as drawn. A value given as a limit tells only on which side of the number the result lay.

For this assay, the system named is K562. As to the kind of experiment: Cytotoxicity against human K-562 cells after 5 days by MTT assay. To be noted: K562, 120 h, read-out: LC50 (the source's name). The class given is functional. A general note: Tetrazolium assays rely on reduction of a dye to a coloured formazan, in cell work by metabolically active cells.
For the compound `CCCCCC/C=C\C#C/C=C\OC[C@@H](O)CO` [PETRORASPAILYNE A1], the CC50 was 9.2 µg/mL (≈ 36.5 µM).
For `CC(C)CCCC/C=C\C#C/C=C\OC[C@@H](O)CO` [PETRORASPAILYNE A2], the CC50 worked out at 57 µg/mL (≈ 214 µM).
As to `CCC(C)CCCCC/C=C\C#C/C=C\OC[C@@H](O)CO` (stereo partly specified) [PETRORASPAILYNE A3], the CC50 amounted to 29 µg/mL (≈ 98.5 µM).
As for `CCCCCCCCC#C/C=C\OC[C@@H](O)CO` [PETRORASPAILYNE B1], the CC50 was above 100 µg/mL.
For `CCC(C)CCCCCC#C/C=C\OC[C@@H](O)CO` (stereo partly specified) [PETRORASPAILYNE B2], the CC50 is above 100 µg/mL.
In the case of `CC(C)CCCCCCC#C/C=C\OC[C@@H](O)CO` [PETRORASPAILYNE B3], the CC50 is above 100 µg/mL.
